A word on the pKa: it is the negative logarithm of the acid dissociation constant.

Entries after “also recorded” stand apart in the source; their conditions may differ. Read-outs that look alike come from different tables or passages of the source.

Consider four molecules from patent US20230345975A1, “COMPOSITIONS AND METHODS OF PRESERVING MEAT SUBSTITUTES” (Wisconsin Alumni Research Foundation, priority 2016, published 2023).

Series [1] has as its target plant Hb (soybean hemoglobin; Lba) in meat analog (Glycine max, UniProt P02238). Description: Color stability of meat analog during refrigerated light display. Here is the method:
FIG. 1—Color stability of meat analog. Treatments: Water (W); 2.5 mmol/kg tissue Niacin (NA). Packaging: High oxygen package (80% O2, 20% CO2). Water content: 3% water capacity. Days under light (˜300 ft): 4 days under light display at 1-3° C.
FIG. 3—Effect of high oxygen during packaging. […] W-water added. All samples were stored at 1-3° C. during light display (300 foot candles).
The niacin can also be added to the solid plant protein/plant fat matrix already containing the added plant Hb. There is approximately 150 μmol of plant heme/kg meat analog. Therefore, a targeted final concentration of niacin would be 150 μmol/kg meat analog, which is equivalent to 18.5 mg niacin per kg meat analog.
Niacin is added to the meat analog already containing the plant Hb (soybean hemoglobin; Lba) and the product is stored under lights in high oxygen packaging during 4 days of refrigerated storage.

The conditions of series [2]: cited from earlier work.
The conditions of series [3]: cited from earlier work. This is another data set of the same source.
In a further series the target is soybean Hb (Lba) (Glycine max, UniProt P02238). Description: Redness (a-value) of Lba solutions after exposure to 35 fc of light for 4 days. The following applies: for Redness (a-value) at day 4: 35 fc light, 4 days, main effect over pH. How it is done:
FIG. 2—Effect of pH and different molar ratios of niacin to soybean Hb on the redness of Lba solutions. Measurement after exposure to 35 fc of light for 4 days
100 grams of meat analog containing a 3:1 dose of niacin would provide 5.9 mg niacin; a 6:1 dose would provide 11.8 mg niacin.

Sequence of soybean Hb (Lba) (P02238 whole entry): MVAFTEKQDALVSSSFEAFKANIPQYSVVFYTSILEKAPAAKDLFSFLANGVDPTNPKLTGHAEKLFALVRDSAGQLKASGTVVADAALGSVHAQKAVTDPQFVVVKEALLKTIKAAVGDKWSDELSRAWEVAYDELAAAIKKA
Sequence of plant Hb (soybean hemoglobin; Lba) in meat analog (P02238 whole entry): as above

For `O=C1O[C@H]([C@@H](O)CO)C(O)=C1O` [Ascorbic acid], the “color stabilization of meat analog” value in series [1] (high oxygen packaging 80% O2/20% CO2, light display 300 foot candles, 1-3° C.) is reported as “did not stabilize color”.

On to `N[C@@H](Cc1c[nH]cn1)C(=O)O` [histidine, Histidine], for which the pKa in series [2] (buffer) is approximately 6. For the same molecule, the “pKa of the conjugate acid (protonated form) of the imidazole side chain” value in series [2] was “approximately 6.0”.

Turning to `O=C(O)c1cccnc1` [niacin, nicotinic acid], the “color retention of meat analog” value in series [1] (2.5 mmol/kg niacin, high oxygen package (80% O2, 20% CO2), 4 days under light display at 1-3° C.) is on record as “retains a superior color; also recorded: retain a pink color for four days”. The “time for which meat analog maintained color” value in series [1] (storage entirely in 80% O2/20% CO2, light display 300 foot candles, 1-3° C.) is recorded as not above 11 days. In addition, in series [1] (transferred from 80% O2/20% CO2 at day 4 to air-permeable overwrap, assessed at day 8), the “ability to stabilize color in meat analog after change of packaging” value was “lost”. The “Tolerable Upper Intake Level (UL)” value is reported as 10 mg/day in series [3] (European Food Safety Authority); 35 mg/day in series [3] (Food and Nutrition Board of the U.S. Institute of Medicine). In addition, the “stabilization of red color of Lba solution versus control with no niacin” value on soybean Hb (Lba) (1:1 (niacin:Lba) ratio) is recorded as “stabilized red color better than control”. Besides, the “Redness (a-value) at day 4” value came to 4.10c at soybean Hb (Lba) (niacin:Lba molar ratio 1:1), 5.35b on soybean Hb (Lba) (niacin:Lba molar ratio 3:1) and 5.79a on soybean Hb (Lba) (niacin:Lba molar ratio 6:1).

As for Imidazole, the “pKa as an acid” value in series [2] (acidic proton on N-1) is 14.5. In addition, the “pKa of the conjugate acid (pKBH+)” value in series [2] (as a base, basic site N-3) was “approximately 7”.
